Results from ChEMBL document CHEMBL5441456, “ASAP - SARS-CoV-2 nsp3 macrodomain dose response” (2024).
Where “and” joins values, the source holds several entries; their conditions need not be identical. Identical values can stand only once.

Key:
[1] = biological target: T1, Replicase polyprotein 1ab (Severe acute respiratory syndrome coronavirus 2, UniProt P0DTD1); assay: Functional biochemical assay to identify treatments for viral infectious disease that targets SARS-COV-2 nsp3 macrodomain, whereby the mechanism of action inhibits ADP-Ribose hydrolase activity. Utilizing an enzymatic assay to monitor the conversion of alpha-NAD+ to ADP-Ribose and nicotinamide. ADP-ribose was quantified by LC-MS/MS after precipitation of proteins.
[2] = biological target: T1, Replicase polyprotein 1ab; assay: Functional biochemical assay to identify treatments for viral infectious disease that targets SARS-COV-2 nsp3 macrodomain, whereby the mechanism of action displaces an ADP-Ribose modified peptide from the binding site. Utilizing a time-resolved fluorescence method to measure binding by reading the emitted fluorescence intensity in two wavelengths.

Row | SMILES | IC50 [1] | IC50 [2]
1 | Cn1ncc(-c2cc3c(N[C@@H](c4ccc5c(n4)OCCO5)C(C)(C)C)ncnc3[nH]2)c1C#N | 0.133 µM and 0.191 µM and 0.235 µM | 46 nM and 30 nM (2×) and 20 nM
2 | Cc1nn(C)cc1-c1cc2c(N[C@H](c3ccc4c(c3)S(=O)(=O)CCC4)C(C)C)ncnc2[nH]1 | 0.322 µM and 0.241 µM and 0.288 µM | 28 nM (3×) and 14 nM and 32 nM and 13 nM and 24 nM and 36 nM and 12 nM and 11 nM
3 | CC(C)[C@@H](Nc1ncnc2[nH]c(C(=O)N[C@@H]3CCN(C)C3)cc12)c1ccc2c(c1)S(=O)(=O)CCC2 | 0.479 µM and 0.316 µM and 0.454 µM | 0.065 µM and 0.066 µM and 0.072 µM and 0.058 µM
4 | COc1ccc([C@H](Cc2nnn[nH]2)NC(=O)c2ncnc3[nH]ccc23)cc1 | 2.34 µM and 1.49 µM and 1.61 µM | 0.349 µM and 0.319 µM
5 | CNCc1cc(-c2cc3c(N[C@@H](c4ccc5c(c4)S(=O)(=O)CCC5)C(C)C)ncnc3[nH]2)co1 | 0.289 µM and 0.396 µM and 0.533 µM | 25 nM and 41 nM and 22 nM and 19 nM (2×) and 12 nM
6 | CC(C)[C@@H](Nc1ncnc2[nH]ccc12)c1ccc2c(c1)NC(=O)CO2 | 2.96 µM | 0.7 µM and 0.722 µM and 0.396 µM and 0.378 µM
7 | C[C@H](C(=O)O)[C@@H](NC(=O)c1ncnc2[nH]ccc12)c1ccc(Br)cc1 | 1.34 µM and 1.9 µM and 1.8 µM | 0.794 µM and 0.622 µM and 0.34 µM
8 | CNC(=O)Cn1cc(-c2cc3c(N[C@@H](c4ccc5c(c4)S(=O)(=O)CCC5)C(C)C)ncnc3[nH]2)cn1 | 0.204 µM and 0.197 µM and 0.288 µM | 0.035 µM and 0.019 µM and 0.03 µM and 0.018 µM and 0.016 µM and 0.015 µM and 0.01 µM
9 | CC(C)[C@@H](Nc1ncnc2[nH]c(-c3cnn(C)c3C#N)cc12)c1ccc2c(n1)OCCO2 | 0.283 µM and 0.156 µM and 0.312 µM | 0.068 µM and 0.074 µM and 0.04 µM and 0.029 µM and 0.059 µM and 0.067 µM
10 | CC(C)[C@H](Nc1ncnc2[nH]c(-c3cnn(C)c3C#N)cc12)c1ccc2c(n1)OCCO2 | > 4 µM | 19.3 µM and 19.1 µM and 30.8 µM and 19 µM
11 | CC(C)[C@H](Nc1ncnc2[nH]ccc12)c1ccc2c(c1)S(=O)(=O)CCC2 | 0.803 µM and 0.194 µM and 0.512 µM | 0.093 µM and 0.138 µM and 0.085 µM
12 | CC(C)[C@@H](Nc1ncnc2[nH]c(-c3cnn(C)c3)cc12)c1ccc2c(c1)S(=O)(=O)CCC2 | 0.328 µM and 0.264 µM | 36 nM and 54 nM and 19 nM and 34 nM (2×) and 17 nM and 29 nM and 27 nM and 35 nM and 15 nM
13 | CC(C)(C)[C@@H](Nc1ncnc2[nH]c(-c3cnn(CC(N)=O)c3)cc12)c1ccc2c(n1)OCCO2 | 0.203 µM | 0.082 µM and 0.064 µM and 0.054 µM
14 | CNC(=O)c1c[nH]c2ncnc(N[C@H](c3ccc4c(c3)S(=O)(=O)CCC4)C(C)C)c12 | 0.246 µM | 0.12 µM and 0.11 µM
15 | CC(C)[C@H](Nc1ncncc1-c1nc[nH]n1)c1ccc2c(c1)S(=O)(=O)CCC2 |  | > 99.5 µM
16 | CC(C)[C@@H](Oc1ncnc2[nH]ccc12)c1ccc2c(c1)S(=O)(=O)CCC2 |  | 6.05 µM
17 | CC(C)[C@H](Nc1ncnc2c1CCN2)c1ccc2c(c1)S(=O)(=O)CCC2 |  | 52.1 µM
18 | CC(C)[C@H](Nc1ncnc2c1NCCO2)c1ccc2c(c1)S(=O)(=O)CCC2 |  | > 99.5 µM
19 | CC(C)[C@@H](Nc1ncnc2[nH]c(Br)cc12)c1ccc2c(c1)S(=O)(=O)CCC2 |  | 0.336 µM
20 | CC(C)[C@H](Nc1cc(-c2nc[nH]n2)ncn1)c1ccc2c(c1)S(=O)(=O)CCC2 |  | > 99.5 µM
21 | CC(C)[C@H](Nc1ncnc2cn[nH]c12)c1ccc2c(c1)S(=O)(=O)CCC2 |  | > 99.5 µM
22 | CCNC(=O)c1cc2c(N[C@H](c3ccc4c(n3)S(=O)(=O)CCC4)C(C)C)ncnc2[nH]1 |  | 0.119 µM
23 | CC(C)[C@H](Nc1ncnc2[nH]nnc12)c1ccc2c(c1)S(=O)(=O)CCC2 |  | > 99.5 µM
24 | CC(C)[C@@H](Oc1ncnc2[nH]ccc12)c1ccc2c(c1)OCCO2 |  | > 99.5 µM
25 | CC(C)[C@H](Nc1ncncc1N1CCNCC1)c1ccc2c(c1)S(=O)(=O)CCC2 |  | > 99.5 µM
26 | CC(C)[C@H](Nc1nccc2[nH]ccc12)c1ccc2c(c1)S(=O)(=O)CCC2 |  | > 99.5 µM
